Assay results from patent US9409864B2, “Sulfonamide TRPA1 receptor antagonists” (ARIO PHARMA LIMITED, priority 2013, dated 2016).

Molecular target: T1, native human TRPA1 receptors (Homo sapiens, UniProt O75762)
T1 construct: stably expressing native human TRPA1 receptors were used; endogenous in cells; host or cells: A549 human lung adenocarcinoma epithelial cell line
Test: PF-4840154 (1 μM)-induced Ca2+ fluorescence measurements in A549 cell line
Format: cell-based
Details: for inhibition at 10 µM: 10 μM compound against 1 μM PF-4840154, A549 cells; for IC50: A549 cells
Procedure: PF-4840154 (1 μM)-Induced Ca^2+ Fluorescence Measurements in A549 Cell Line
Human lung adenocarcinoma epithelial cell line (A549) stably expressing native human TRPA1 receptors were used. The cells were cultured in medium consisting of Eagle's minimal essential medium (EMEM) supplemented with 10% fetal bovine serum (FBS), penicillin (100 IU/ml), streptomycin ([…]), L-glutamine (2 mM), sodium bicarbonate (2.5 g/L) and HEPES (24 mM). Cells were kept at 37° C. in 5% CO2/humidified air. For the experiments the cells were seeded at a density of 16,000 cells/well into 96-well black, clear-bottom plates. After 24 hours incubation the cells were loaded with medium supplemented with 2.5 mM probenecid, 3 μM of the calcium sensitive fluorescent dye Fluo-4 AM and 0.01% pluronic acid, for 30 min at 37° C. Afterwards the loading solution was aspirated and 100 μl/well of assay buffer: Hank's Balanced Salt Solution (HBSS) supplemented with 2.5 mM probenecid and 500 μM Brilliant Black (Aldrich) was added. Stock solutions (100 mM) of ligands were made in Dimethyl Sulfoxide (DMSO) and stored at −20° C. Serial dilutions of ligands for experimental use were made in HBSS buffer. After placing both plates (cell culture and compound plate) into the FlexStation II (Molecular Device, Union City, Calif. 94587, US), fluorescence changes were measured. On-line additions were carried out in a volume of […]. To facilitate drug diffusion into the wells in antagonist type experiments, the studies were performed at 36.5° C. and three cycles of mixing (25 μl from each well moved up and down 3 times) were performed immediately after antagonist injection to the wells. All exemplified compounds were tested alone (to address residual agonistic activity) and against 1 μM of PF-4840154 to address inhibitory activity at the initial concentration of 10 μM. For selected examples the entire inhibitory concentration-response curves were constructed and the IC50 value calculated.
PF-4840154 (1 μM) increased [Ca^2+] in the vast majority (95%) of cultured cells which were thereby identified as TRPA1 expressing cells.

[1] = against PF-4840154 (1 μM)-evoked [Ca2+]i mobilization
[2] = against PF-4840154 (1 μM), cells printed in μM

T1 sequence (O75762 whole entry): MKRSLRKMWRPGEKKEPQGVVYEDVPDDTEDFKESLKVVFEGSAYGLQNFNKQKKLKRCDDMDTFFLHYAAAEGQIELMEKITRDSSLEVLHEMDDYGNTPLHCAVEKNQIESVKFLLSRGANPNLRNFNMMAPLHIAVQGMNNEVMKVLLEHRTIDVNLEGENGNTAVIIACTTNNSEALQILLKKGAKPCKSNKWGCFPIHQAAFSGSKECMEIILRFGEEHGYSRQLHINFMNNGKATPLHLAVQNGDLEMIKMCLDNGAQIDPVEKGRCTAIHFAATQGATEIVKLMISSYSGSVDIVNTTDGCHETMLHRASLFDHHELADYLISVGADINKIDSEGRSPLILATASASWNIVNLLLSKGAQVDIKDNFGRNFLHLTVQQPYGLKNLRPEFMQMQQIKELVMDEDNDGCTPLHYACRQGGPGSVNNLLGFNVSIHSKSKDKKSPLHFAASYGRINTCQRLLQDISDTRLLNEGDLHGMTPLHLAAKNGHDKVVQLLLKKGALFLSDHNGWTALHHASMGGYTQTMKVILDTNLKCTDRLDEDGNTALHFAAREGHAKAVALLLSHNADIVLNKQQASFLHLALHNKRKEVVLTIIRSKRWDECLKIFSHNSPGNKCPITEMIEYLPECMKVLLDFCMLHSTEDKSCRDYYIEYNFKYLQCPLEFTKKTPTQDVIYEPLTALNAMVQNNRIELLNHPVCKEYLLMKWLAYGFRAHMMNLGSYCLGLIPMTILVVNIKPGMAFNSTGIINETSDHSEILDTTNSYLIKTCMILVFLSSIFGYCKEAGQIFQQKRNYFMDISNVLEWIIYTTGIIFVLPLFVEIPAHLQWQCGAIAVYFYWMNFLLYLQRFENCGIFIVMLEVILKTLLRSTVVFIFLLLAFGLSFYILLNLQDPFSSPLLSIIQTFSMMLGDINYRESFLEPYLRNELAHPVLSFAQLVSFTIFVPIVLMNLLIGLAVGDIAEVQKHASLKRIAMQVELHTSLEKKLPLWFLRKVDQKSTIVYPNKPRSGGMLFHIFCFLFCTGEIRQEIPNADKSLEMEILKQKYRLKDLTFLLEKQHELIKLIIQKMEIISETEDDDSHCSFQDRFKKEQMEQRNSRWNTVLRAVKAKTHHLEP

SMILES | inhibition at 10 µM [%] | IC50 [1] [µM] | IC50 [2] [µM]
C=C(C(=O)NCc1cccc(-c2ccc(OC(F)(F)F)cc2)c1)N(CC)S(=O)(=O)c1ccc(Cl)s1 [Example 55, 2-[(5-chloro-2-thienyl)sulfonyl-ethyl-amino]-N-[[3-[4-(trifluoromethoxy)phenyl]phenyl]methyl]prop-2-enamide] | 100 | 0.031 | 
C=C(C(=O)NCc1cc(-c2ccc(C(F)(F)F)cc2)nc(N2CCOCC2)c1)N(CC)S(=O)(=O)c1ccc(Cl)s1 [Example 43, 2-[(5-chloro-2-thienyl)sulfonyl-ethyl-amino]-N-[[2-morpholino-6-[4-(trifluoromethyl)phenyl]-4-pyridyl]methyl]prop-2-enamide] | 100 | 0.048 | 
CCN(C1(C(=O)NCc2cc(OC(C)C)nc(-c3ccc(C(F)(F)F)cc3)c2)CC1)S(=O)(=O)c1ccc(F)cc1 [Example 49, 1-[ethyl-(4-fluorophenyl)sulfonyl-amino]-N-[[2-isopropoxy-6-[4-(trifluoromethyl)phenyl]-4-pyridyl]methyl]cyclopropanecarboxamide] | 98 | 0.095 | 
C=C(C(=O)NCc1cccc(-c2ccc(C(F)(F)F)cc2)c1)N(C)S(=O)(=O)c1ccc(Cl)cc1 [Example 9, 2-[(4-chlorophenyl)sulfonyl-methyl-amino]-N-[[3-[4-(trifluoromethyl)phenyl]phenyl]methyl]prop-2-enamide] | 98 | 0.068 | 
O=C(NCc1cc(-c2ccc(OC(F)(F)F)cc2)nc(N2CCCC2)c1)C1(NS(=O)(=O)c2ccc(F)cc2)CC1 [Example 33, 1-[(4-fluorophenyl)sulfonylamino]-N-[[2-pyrrolidin-1-yl-6-[4-(trifluoromethoxy)phenyl]-4-pyridyl]methyl]cyclopropanecarboxamide] | 55 |  | > 2
CCN(C1(C(=O)NCc2ccnc(-c3ccc(OC(F)(F)F)cc3)c2)CC1)S(=O)(=O)c1ccc(Cl)s1 [Example 28, 1-[(5-chloro-2-thienyl)sulfonyl-ethyl-amino]-N-[[2-[4-(trifluoromethoxy)phenyl]-4-pyridyl]methyl]cyclopropanecarboxamide] | 100 | 0.129 | 
CCN(C1(C(=O)NCc2cc(-c3ccc(C(F)(F)F)cc3)ccn2)CC1)S(=O)(=O)c1ccc(F)cc1 [Example 60, 1-[ethyl-(4-fluorophenyl)sulfonyl-amino]-N-[[4-[4-(trifluoromethyl)phenyl]-2-pyridyl]methyl]cyclopropanecarboxamide] | 100 | 0.423 | 
CCOc1cc(CNC(=O)C2(N(CC)S(=O)(=O)c3ccc(F)cc3)CC2)cc(-c2ccc(C(F)(F)F)cc2)n1 [Example 52, N-[[2-ethoxy-6-[4-(trifluoromethyl)phenyl]-4-pyridyl]methyl]-1-[ethyl-(4-fluorophenyl)sulfonyl-amino]cyclopropanecarboxamide] | 99 | 0.087 | 
O=C(NCc1cc(-c2ccc(C(F)(F)F)cc2)nc(N2CCCC2)c1)C1(NS(=O)(=O)c2ccc(F)cc2)CC1 [Example 32, 1-[(4-fluorophenyl)sulfonylamino]-N-[[2-pyrrolidin-1-yl-6-[4-(trifluoromethyl)phenyl]-4-pyridyl]methyl] cyclopropanecarboxamide] | 80 |  | > 4
C=C(C(=O)NCc1ccnc(-c2ccc(OC(F)(F)F)cc2)c1)N(C)S(=O)(=O)c1ccc(C)cc1 [Example 6, 2-(methyl(p-tolylsulfonyl)amino)-N-[[2-[4-(trifluoromethoxy)phenyl]-4-pyridyl]methyl]prop-2-enamide] | 100 | 0.355 | 
C/C=C(/C(=O)NCc1cccc(-c2ccc(C(F)(F)F)cc2)c1)N(CC)S(=O)(=O)c1ccc(Cl)cc1 [Example 24, (Z)-2-[(4-chlorophenyl)sulfonyl-ethyl-amino]-N-[[3-[4-(trifluoromethyl)phenyl]phenyl]methyl]but-2-enamide] | 97 | 0.724 | 
CCN(C1(C(=O)NCc2cc(-c3ccc(OC(F)(F)F)cc3)nc(N3CCCC3)c2)CC1)S(=O)(=O)c1ccc(F)cc1 [Example 61, 1-[ethyl-(4-fluorophenyl)sulfonyl-amino]-N-[[2-pyrrolidin-1-yl-6-[4-(trifluoromethoxy)phenyl]-4-pyridyl]methyl]cyclopropanecarboxamide] | 95 | 0.784 | 
CCN(C1(C(=O)NCc2cccc(-c3ccc(OC(F)(F)F)cc3)c2)CC1)S(=O)(=O)c1ccc(F)cc1 [Example 31, 1-[ethyl-(4-fluorophenyl)sulfonyl-amino]-N-[[3-[4-(trifluoromethoxy)phenyl]phenyl]methyl]cyclopropanecarboxamide] | 100 | 0.057 | 
CN(C1(C(=O)NCc2cccc(-c3ccc(OC(F)(F)F)cc3)c2)CC1)S(=O)(=O)c1ccc(F)cc1 [Example 57, 1-[(4-fluorophenyl)sulfonyl-methyl-amino]-N-[[3-[4-(trifluoromethoxy)phenyl]phenyl]methyl]cyclopropanecarboxamide] | 97 | 0.275 | 
C=C(C(=O)NCc1cc(-c2ccc(C(F)(F)F)cc2)nc(N(C)C)c1)N(CC)S(=O)(=O)c1ccc(Cl)s1 [Example 39, 2-[(5-chloro-2-thienyl)sulfonyl-ethyl-amino]-N-[[2-dimethylamino-6-[4-(trifluoromethyl)phenyl]-4-pyridyl]methyl]prop-2-enamide] | 100 | 0.02 | 
C=C(C(=O)NCc1ccnc(-c2ccc(C(F)(F)F)cc2)c1)N(C)S(=O)(=O)c1ccc(F)cc1 [Example 56, 2-[(4-fluorophenyl)sulfonyl-methyl-amino]-N-[[2-[4-(trifluoromethyl)phenyl]-4-pyridyl]methyl]prop-2-enamide] | 100 | 0.275 | 
CCN(C1(C(=O)NCc2cc(-c3ccc(C(F)(F)F)cc3)nc(N3CCN(C4CCCCC4)CC3)c2)CC1)S(=O)(=O)c1ccc(Cl)s1 [Example 67, 1-[(5-chloro-2-thienyl)sulfonyl-ethyl-amino]-N-[[2-(4-cyclohexylpiperazin-1-yl)-6-[4-(trifluoromethyl)phenyl]-4-pyridyl]methyl]cyclopropanecarboxamide] | 95 | 0.59 | 
CCN(C1(C(=O)NCc2cc(OC)nc(-c3ccc(C(F)(F)F)cc3)c2)CC1)S(=O)(=O)c1ccc(F)cc1 [Example 48, 1-[ethyl-(4-fluorophenyl)sulfonyl-amino]-N-[[2-methoxy-6-[4-(trifluoromethyl)phenyl]-4-pyridyl]methyl]cyclopropanecarboxamide] | 96 | 0.26 | 
C=C(C(=O)NCc1cc(-c2ccc(OC(F)(F)F)cc2)nc(N2CCCC2)c1)N(CC)S(=O)(=O)c1ccc(F)cc1 [Example 18, 2-[ethyl-(4-fluorophenyl)sulfonyl-amino]-N-[[2-pyrrolidin-1-yl-6-[4-(trifluoromethoxy)phenyl]-4-pyridyl]methyl]prop-2-enamide] | 100 | 0.093 | 
CCN(C1(C(=O)NCc2cc(-c3ccc(C(F)(F)F)cc3)nc(N3CCOCC3)c2)CC1)S(=O)(=O)c1ccc(F)cc1 [Example 62, 1-[ethyl-(4-fluorophenyl)sulfonyl-amino]-N-[[2-morpholino-6-[4-(trifluoromethyl)phenyl]-4-pyridyl]methyl] cyclopropanecarboxamide] | 100 | 0.66 | 
C/C=C(/C(=O)NCc1cccc(-c2ccc(C(F)(F)F)cc2)c1)N(C)S(=O)(=O)c1ccc(Cl)cc1 [Example 23, (Z)-2-[(4-chlorophenyl)sulfonyl-methyl-amino]-N-[[3-[4-(trifluoromethyl)phenyl]phenyl]methyl]but-2-enamide] | 98 | 0.437 | 
C=C(C(=O)NCc1cc(-c2ccc(C(F)(F)F)cc2)nc(N2CCOCC2)c1)N(CC)S(=O)(=O)c1ccc(F)cc1 [Example 42, 2-[ethyl-(4-fluorophenyl)sulfonyl-amino]-N-[[2-morpholino-6-[4-(trifluoromethyl)phenyl]-4-pyridyl]methyl]prop-2-enamide] | 100 | 0.104 | 
C=C(C(=O)NCc1cc[n+]([O-])c(-c2ccc(C(F)(F)F)cc2)c1)N(CC)S(=O)(=O)c1ccc(F)cc1 [Example 54, 2-[ethyl-(4-fluorophenyl)sulfonyl-amino]-N-[[1-oxido-2-[4-(trifluoromethyl)phenyl]pyridin-1-ium-4-yl]methyl]prop-2-enamide] | 47 |  | > 10
